Reference: patent publication US20230150981A1, “N-HETEROARYLALKYL-2-(HETEROCYCLYL AND HETEROCYCLYLMETHYL) ACETAMIDE DERIVATIVES AS SSTR4 AGONISTS” (Takeda Pharmaceutical Compnay Limited, priority 2020, published 2023)

Experiments:
[1] = target: T1, SSTR4 (Homo sapiens, UniProt P31391); test: Inhibition of forskolin stimulated cAMP in CHO-K1 cells overexpressing SSTR4; type: cell-based; conditions: read-out: SSTR4 Activity pEC50 (converted)
T1 construct: host or cells: CHO-K1
Outline: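 CHO-K1 cells overexpressing SSTR4 treated 30 min at room temperature with compound in Krebs Ringer buffer containing 0.5% BSA, 300 μM IBMX and 350 nM forskolin. Intracellular cAMP measured by HTRF LANCE Ultra (665/615 nm); pEC50 values reported.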

[2] = target: T1, SSTR4; test: SSTR4 I-125 somatostatin competition binding assay (CHO-K1 membranes); conditions: competition with I-125 somatostatin, membranes from CHO-K1 overexpressing SSTR4; read-out: SSTR4 Binding pIC50 (converted)
Outline: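 CHO-K1 membranes overexpressing SSTR4 (1 μg/well) were incubated 60 min at room temperature with compound and I-125 somatostatin (0.2 nM in the compound mix) in 25 mM HEPES pH 7.4, 10 mM MgCl2, 1 mM CaCl2, 0.5% BSA. Bound radioligand was collected on PEI-soaked filters and scintillation-counted, with results reported as pIC50.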

[3] = target: T2, SSTR1 (Homo sapiens, UniProt P30872); test: SSTR1 I-125 somatostatin competition binding assay for selectivity versus SSTR1 (CHO-K1 membranes); conditions: competition with I-125 somatostatin, membranes from CHO-K1 overexpressing SSTR1; read-out: SSTR1 Binding pIC50 (converted)
T2 construct: purchased Perkin Elmer ES-520-M400UA; host or cells: CHO-K1 membranes
Outline: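 Competition binding used 10 μg CHO-K1 SSTR1 membranes and I-125 somatostatin, 0.4 nM in the compound mix before membranes were added. Buffer was 25 mM HEPES pH 7.4, 10 mM MgCl2, 1 mM CaCl2, 0.5% BSA. After 60 min at room temperature, bound tracer was filtered onto PEI-soaked filters and counted by scintillation; values are pIC50.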

T2 sequence (P30872 whole entry): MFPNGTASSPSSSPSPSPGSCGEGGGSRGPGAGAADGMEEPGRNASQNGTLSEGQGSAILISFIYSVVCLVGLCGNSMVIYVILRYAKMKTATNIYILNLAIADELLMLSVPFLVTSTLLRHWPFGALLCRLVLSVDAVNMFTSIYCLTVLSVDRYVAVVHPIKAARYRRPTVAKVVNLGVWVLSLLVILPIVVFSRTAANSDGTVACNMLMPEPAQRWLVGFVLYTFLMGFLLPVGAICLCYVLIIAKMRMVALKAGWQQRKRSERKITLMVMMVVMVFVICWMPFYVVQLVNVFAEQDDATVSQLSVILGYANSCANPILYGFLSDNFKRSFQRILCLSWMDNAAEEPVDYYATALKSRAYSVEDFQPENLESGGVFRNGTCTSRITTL
T1 sequence (P31391 whole entry): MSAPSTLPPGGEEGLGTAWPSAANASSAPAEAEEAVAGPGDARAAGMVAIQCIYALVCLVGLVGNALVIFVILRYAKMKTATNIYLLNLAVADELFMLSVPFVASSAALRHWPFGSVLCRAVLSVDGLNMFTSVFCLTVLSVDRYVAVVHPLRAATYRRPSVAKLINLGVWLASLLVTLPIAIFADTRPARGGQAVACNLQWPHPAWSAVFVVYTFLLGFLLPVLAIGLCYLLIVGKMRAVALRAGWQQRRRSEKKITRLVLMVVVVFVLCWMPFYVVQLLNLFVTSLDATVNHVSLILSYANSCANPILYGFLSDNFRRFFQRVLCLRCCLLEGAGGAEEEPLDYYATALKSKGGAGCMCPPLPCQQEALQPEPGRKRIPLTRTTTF

| EC50 [1] [nM] | IC50 [2] [nM] | IC50 [3] [nM] | SMILES |
| --- | --- | --- | --- |
| 2 | 15.8 | 3980 | COc1c(F)cccc1C(C)(C)NC(=O)[C@H](C)CN1CCC1 (single isomer, unassigned) [Example 171] |
| 0.158 | 6.31 | 1580 | C[C@H](CN1CCC1)C(=O)N[C@H](c1ccccc1)C(F)F (single isomer, unassigned) [Example 181] |
| 6.31 | 126 | 10000 | C[C@H](CN1CCCC1)C(=O)NC(C)(C)c1ccccc1Cl (single isomer, unassigned) [Example 136] |
| 2.51 | 39.8 | 3160 | C[C@@H](CN1CCC1)C(=O)NC(C)(C)c1ccc(Cl)cc1 (single isomer, unassigned) [Example 155] |

Second part, the compound before the results:

| SMILES | EC50 [1] [nM] | IC50 [2] [nM] | IC50 [3] [nM] |
| --- | --- | --- | --- |
| Cc1cccc2c(C(C)(C)NC(=O)CC3NCCC3(F)F)nccc12 (stereo not drawn) [Example 101, 2-(3,3-difluoropyrrolidin-2-yl)-N-(2-(5-methylisoquinolin-1-yl)propan-2-yl)acetamide] | 100 | 631 | > 50100 |
| Cc1c(Cl)cccc1C(C)(C)NC(=O)C[C@H]1CCCN1C [Example 119, (R)-N-(2-(3-chloro-2-methylphenyl)propan-2-yl)-2-(1-methylpyrrolidin-2-yl)acetamide] | 15.8 | 251 | 20000 |
| O=C(CCN1CCC1)NC(c1cccc(Cl)c1)C(F)(F)F (single isomer, unassigned) [Example 191] | 2 | 10 | 2510 |
